Results reported in article PMC9354954, “Assessing Bioavailability and Bioactivity of 4-Hydroxythiazolidine-2-Thiones, Newly Discovered Glucosinolate Degradation Products Formed During Domestic Boiling of Cabbage” (Frontiers in Nutrition, 2022).

Legend:
[1] = tested on: HepG2 cells; test: Cytotoxicity, MTT assay; type: cell-based, human; settings: up to 100 μM, 24 h
Experimental: (§1) To determine the cytotoxicity of allyl HTT and 4-MSOB HTT, HepG2 and Caco-2 cells were seeded in a 96-well TC-plate (standard F, sterile, from Sarsted, Nümbrecht, Germany) using a seeding density of 20,000 cells/well. After 24 h, the medium was exchanged to 200 μL pure medium or 200 μL medium containing allyl HTT or 4-MSOB HTT with concentrations in the range of 0.1–100 μM. The cells were treated for 24 h under cell culture conditions (prepared for three biological replicates, every 3 technical replicates). Cell viability was determined using the MTT assay and the neutral red uptake assay based on Schröter et al. ([27]). In the case of MTT assay, after 24 h of HTT treatment, 20 μL of MTT solution (75 mg MTT in 15 mL PBS) were added, and cells were incubated for 60 min under cell culture conditions. Afterward, the supernatant was removed and 100 μL of lysis buffer (5% formic acid in isopropanol) was added and the plate was shaken for 10 min at 300 rpm before measuring the absorption at 550 ± 5 nm (reference 690 ± 5 nm) by a Tecan i-control Infinite M200 PRO plate reader (Crailsheim, Germany). In the case of the neutral red uptake assay, the supernatant was removed after 24 h HTT treatment, and 100 μL neutral red solution (40 mg neutral red in 10 mL PBS, freshly diluted 1:100 with medium and incubated for 24 h under cell culture conditions) was added. After incubation of neutral red solution for 2 h under cell culture conditions, the supernatant was removed, and cells were washed with 150 μL of PBS. After removing PBS, 150 μL desorb solution (49.5% water/49.5% ethanol/1% acetic acid) was added and the plate was shaken for 10 min at 300 rpm before measuring the absorption at 540 ± 5 nm by Tecan i-control Infinite M200 PRO plate reader. The mean ± SD is used for presenting the results of three technical replicates for each data point of the three biological replicates.

[2] = tested on: Caco-2 cells; test: Cytotoxicity, MTT assay; type: cell-based, human; settings: Caco-2, MTT assay, up to 100 μM, 24 h
Experimental: as §1

[3] = Determination of log P (octanol/water); type: physicochemical; settings: room temperature; for concentration ratio in the octanol phase compared to the water phase: 18 h, triplicates; for logP at 18 h: octanol/water
Experimental: For the determination of log P of the HTTs, two solutions were used: water saturated with octanol and octanol saturated with water. […] The spiked octanol-water mixture was vortexed for 30 s and the mixture was incubated for 18 h at room temperature to obtain analyte equilibrium distribution. For determination of the log P-value, 50 μL of the water phase was taken and measured by HPLC-UV at 274 ± 2 nm with HPLC method 2 (see Section Stability of 4-Hydroxythiazolidine-2-Thiones in a Stomach Model) with an injection volume of 10 μL. The analyte concentration in the water phase was determined by using external calibration. The relative analyte content in the water phase was calculated by using the following equation:
analyte content in water phase in % =measured concentration in water phase of the mixture/2 · concentration in pure water reference ·100%
The relative analyte content in the octanol phase was calculated at 100% minus the relative analyte concentration in the water phase. The reported results are the mean ± SD of the three determined log P-values for the three repetitions.

[4] = Antioxidant potential, DPPH assay; settings: compared to compound free blank
Experimental: To evaluate the potential of allyl HTT and 4-MSOB HTT to act as antioxidants, ABTS and DPPH were used as model radicals and Trolox as reference antioxidants based on Shalaby and Shanab ([28]). In total, 1.5 mg of ABTS and 0.26 mg potassium peroxodisulfate were dissolved in 4 mL of pure water and incubated in the dark overnight at room temperature. Afterward, 36 mL of MeOH were added to obtain the fresh ABTS working solution. In the case of the DPPH assay, 1.1 mg of DPPH were dissolved in 4 mL of MeOH and incubated for 2 h in the dark at 4°C, followed by the addition of 36 mL of MeOH to obtain the fresh DPPH working solution. Standards of Trolox, allyl HTT, and 4-MSOB HTT were prepared in water/MeOH (90/10, v/v%) at concentrations in the range of 6.25–100 μM. To detect the antioxidant potential, 100 μL of standard or water/MeOH (90/10, v/v%) as control were added to 1,000 μL of ABTS or DPPH working solution, and the extinction was measured directly after mixing and after 6 min of incubation in the dark with a spectrometer (UviLine 9100, Schott Instruments, Mainz, Germany) at 734 nm in the case of ABTS assay and 515 nm in DPPH assay (each prepared as duplicate). The results are reported as mean ± SD of the reduction of the extinction compared to the control.

[5] = tested on: HepG2 cells; test: Cytotoxicity, neutral red uptake assay; type: cell-based, human; settings: up to 100 μM, 24 h
Experimental: as §1

[6] = tested on: Caco-2 cells; test: Cytotoxicity, neutral red uptake assay; type: cell-based, human; settings: Caco-2, neutral red uptake assay, up to 100 μM, 24 h
Experimental: as §1

[7] = design: method as in PMID 35761548; settings: recently calculated; cited from earlier work
[8] = Estimation of permeability coefficients from plot of Levin data using measured partition coefficients; settings: for Papp: not told, estimated from plot of Levin data (ref 32) using measured octanol/water partition coefficients, read-out: estimated permeability coefficient
Excerpt: The log P-value is positive for compounds which are better soluble in the octanol phase, and is negative for compounds which are better soluble in the aqueous phase. To assess if the different uptake behavior of the two HTTs is based on their different polarity, the octanol/water partition coefficients of several compounds were plotted against their permeability coefficients, based on a previous report by Levin ([32]) (Supplementary Figure S5). The obtained plot was used to estimate the permeability coefficients of the two HTTs with 2 × 10^−4 cm/s for allyl HTT and 1.1 × 10^−5 cm/s for 4-MSOB HTT using the measured octanol/water partition coefficients of both compounds. The ratio of both estimated permeability coefficients was 18 and fitted very well to the measured ratios of 27-fold and 10-fold for the higher uptake of allyl HTT compared to 4-MSOB HTT in the experiments with HepG2 and Caco-2 cells. Therefore, the uptake of allyl HTT and 4-MSOB HTT in the in vitro assays can be primarily explained by simple passive diffusion through the cell membrane. Additionally, the fact that in both intestinal model experiments (transport of the analyte from the upper to the lower compartment, as well as from the lower to an upper compartment), the transport velocity was similar, and an equilibrium concentration between both compartments was reached, supporting the hypothesis of passive diffusion without the need of special transporters.
Figure S5: Plot of data reported by Levin (1980) to describe the correlation between the octanol/water partition coefficients of several compounds and their permeability coefficients. The red line and thin black lines were draw by the author and used to estimate the permeability coefficients of 3-allyl-4-hydroxythiazolidine-2-thione (allyl HTT) and 4-hydroxy-3-(4-(methylsulfinyl)butyl) thiazolidine-2-thione (4-MSOB HTT) using their measured octanol-water partition coefficients (black lines).

C[S+]([O-])CCCCN1C(=S)SCC1O (stereo not drawn) [4-MSOB HTT, 4-hydroxy-3-(4-(methylsulfinyl)butyl)thiazolidine-2-thione]
effect on cell viability compared to untreated cells [1]: did not show any effect on cell viability
effect on cell viability compared to untreated cells [2]: did not show any effect on cell viability
concentration ratio in the octanol phase compared to the water phase [3]: 0.45 ± 0.04
logP at 18 h [3]: -0.35 ± 0.04
Relative signal reduction of the extinction value of the radical DPPH ([4]; 6.25 µM): 0.3 ± 0.4%
Relative signal reduction of the extinction value of the radical DPPH ([4]; 12.5 µM): 0.0 ± 0.3%
Relative signal reduction of the extinction value of the radical DPPH ([4]; 25 µM): 0.3 ± 0.3%
Relative signal reduction of the extinction value of the radical DPPH ([4]; 50 µM): 0.3 ± 0.4%
Relative signal reduction of the extinction value of the radical DPPH ([4]; 100 µM): 0.3 ± 0.4%
effect on cell viability compared to untreated cells [5]: did not show any effect on cell viability
effect on cell viability compared to untreated cells [6]: did not show any effect on cell viability
calculated log P (partition coefficient in octanol/water) [7]: −1.12
Papp [8]: 11 ×10⁻⁶ cm/s

C=CCN1C(=S)SCC1O (stereo not drawn) [allyl HTT, 3-allyl-4-hydroxythiazolidine-2-thione]
effect on cell viability compared to untreated cells [1]: did not show any effect on cell viability
effect on cell viability compared to untreated cells [2]: did not show any effect on cell viability
concentration ratio in the octanol phase compared to the water phase [3]: 8.1 ± 0.4
logP at 18 h [3]: 0.91 ± 0.02
Relative signal reduction of the extinction value of the radical DPPH ([4]; 6.25 µM): 0.2 ± 0.3%
Relative signal reduction of the extinction value of the radical DPPH ([4]; 12.5 µM): 0.0 ± 0.3%
Relative signal reduction of the extinction value of the radical DPPH ([4]; 25 µM): 0.1 ± 0.3%
Relative signal reduction of the extinction value of the radical DPPH ([4]; 50 µM): 0.1 ± 0.3%
Relative signal reduction of the extinction value of the radical DPPH ([4]; 100 µM): 0.0 ± 0.3%
effect on cell viability compared to untreated cells [5]: did not show any effect on cell viability
effect on cell viability compared to untreated cells [6]: did not show any effect on cell viability
calculated log P (partition coefficient in octanol/water) [7]: 0.47
ratio of both estimated permeability coefficients ([8]; allyl HTT vs 4-MSOB HTT): 18
Papp [8]: 200 ×10⁻⁶ cm/s
